We go through 77 sequences from the supplement of paper PMC11208160.
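Note: IS621 recombinase and bridge RNA in Escherichia coli cells.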

The series in a line: recombinant barcode read abundance after kanamycin selection (control-corrected) (log10(CPM+1)); higher = more efficient recombination; sequences stand for … in AGTGCAGAGAAAATCGGCCAGTTTTCTCTGCCTGCAGTCCGCATGCCGT…AGATTTATGCAGCGGACTGCCTTTCTCCCAAAGTGATAAACCGGACAGTATCATGGACCGGTTTTCCCGGTAATCCGTATTTGCAAGGTTGGTTTCACT; site = the 11-nt target. An outline of the steps:
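Recombination efficiency was calculated from barcode counts at recombinant junctions, normalized to counts per million, averaged and corrected by the control. Each value is given as log10(CPM+1). The constructs were Gibson-cloned oligos (promoter, target, barcode, J23119-driven first 104 bridge RNA bases) in a vector with the remaining 73 bp and a T7-inducible recombinase, co-electroporated into E. coli with a donor plasmid and plated in duplicate on chloramphenicol/ampicillin LB agar (control) or chloramphenicol/ampicillin/kanamycin with 0.1 mM IPTG.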
On to “CCAGGAGCTTGGGTTCTAACCTGTTGCCT (site CCAGAAGCTAG)”, for which the “recombinant barcode read abundance (log10)” value came out at 0.338. With “CCAGGAGCTTGGGTTCTAACCTGTTGCCT (site CCAGCAGCTAG)” the figure was 0.103; with “CCAGGAGCTTGGGTTCTAACCTGTTGCCT (site CCAGGAGCTAG)”, 0.545; with “CCAGGAGCTTGGGTTCTAACCTGTTGCCT (site CCAGTAGCTAG)”, 0.109. With “CCAGGTACTTGGGTTCTAACCTGTTGCCT (site ACAGGTACTAG)” the figure was 0.272; with “CCAGGTACTTGGGTTCTAACCTGTTGCCT (site CCAGGTACTAG)”, 0.701.

In the case of “CCAGGTACTTGGGTTCTAACCTGTTGCCT (site GCAGGTACTAG)”, the “recombinant barcode read abundance (log10)” value came out at 0.117. With “CCAGGTACTTGGGTTCTAACCTGTTGCCT (site TCAGGTACTAG)” the figure was 0.182; with “CCAGGTCCTTGGGTTCTAACCTGTTGCAT (site CCAGGTCCTAC)”, 0.111.

Take “CCAGGTCCTTGGGTTCTAACCTGTTGCAT (site CCAGGTCCTAT)”: the “recombinant barcode read abundance (log10)” value was 2.25. With “CCAGGTGCTTGGGTTCTAACCTGTTGCGG (site CCAGGTGCTCC)” the figure was 1.62. With “CCAGGTGCTTGGGTTCTAACCTGTTGCGG (site GGCTTGACTAG)” the figure was 0.0921; with “CCAGTAACTTGGGTTCTAACCTGTTGCCT (site CCAGTAACTAG)”, 0.659; with “CCAGTAACTTGGGTTCTAACCTGTTGCCT (site CCAGTCACTAG)”, 0.137. Take “CCAGTAACTTGGGTTCTAACCTGTTGCCT (site CCAGTGACTAG)”: the “recombinant barcode read abundance (log10)” value is 0.082.

Consider “CCAGTAACTTGGGTTCTAACCTGTTGCCT (site CCAGTTACTAG)”, for which the “recombinant barcode read abundance (log10)” value stood at 0.0883. With “CCAGTAGCTTGGGTTCTAACCTGTTGCCT (site CCAGAAGCTAG)” the figure was 0.382. With “CCAGTAGCTTGGGTTCTAACCTGTTGCCT (site CCAGCAGCTAG)” the figure was 0.161; with “CCAGTAGCTTGGGTTCTAACCTGTTGCCT (site CCAGGAGCTAG)”, 0.193. As to “CCAGTAGCTTGGGTTCTAACCTGTTGCCT (site CCAGTAGCTAG)”, the “recombinant barcode read abundance (log10)” value amounted to 0.52. With “CCAGTCACTTGGGTTCTAACCTGTTGCCT (site CCAGTAACTAG)” the figure was 0.377.

In the case of “CCAGTCACTTGGGTTCTAACCTGTTGCCT (site CCAGTCACTAG)”, the “recombinant barcode read abundance (log10)” value came to 1.88. For “CCAGTCACTTGGGTTCTAACCTGTTGCCT (site CCAGTGACTAG)”, the “recombinant barcode read abundance (log10)” value was found to be 0.176. With “CCAGTCACTTGGGTTCTAACCTGTTGCCT (site CCAGTTACTAG)” the figure was 0.19. With “CCAGTGACTTGGGTTCTAACCTGTTGCCT (site CCAGTAACTAG)” the figure was 0.931; with “CCAGTGACTTGGGTTCTAACCTGTTGCCT (site CCAGTCACTAG)”, 0.299.

As to “CCAGTGACTTGGGTTCTAACCTGTTGCCT (site CCAGTGACTAG)”, the “recombinant barcode read abundance (log10)” value came out at 1.38. With “CCAGTGACTTGGGTTCTAACCTGTTGCCT (site CCAGTTACTAG)” the figure was 0.254; with “CCATGGACTTGGGTTCTAACCTGTTGCCT (site CCAAGGACTAG)”, 0.202; with “CCATGGACTTGGGTTCTAACCTGTTGCCT (site CCACGGACTAG)”, 0.516. With “CCATGGACTTGGGTTCTAACCTGTTGCCT (site CCAGGGACTAG)” the figure was 0.0382; with “CCATGGACTTGGGTTCTAACCTGTTGCCT (site CCATGGACTAG)”, 0.252. For “CCGAAGACTTGGGTTCTAACCTGTTGCCT (site CCGAAGACTAG)”, the “recombinant barcode read abundance (log10)” value worked out at 0.112. With “CCGAAGACTTGGGTTCTAACCTGTTGCCT (site TCGAAGACTTG)” the figure was 0.492. With “CCGACTCCTTGGGTTCTAACCTGTTGCCT (site CCGAATCCTAG)” the figure was 0.0273; with “CCGACTCCTTGGGTTCTAACCTGTTGCCT (site CCGACTCCTAG)”, 0.13.

Take “CCGACTCCTTGGGTTCTAACCTGTTGCCT (site CCGAGTCCTAG)”: the “recombinant barcode read abundance (log10)” value is 0. As to “CCGACTCCTTGGGTTCTAACCTGTTGCCT (site CCGATTCCTAG)”, the “recombinant barcode read abundance (log10)” value is 0.102.

Take “CCGATTCCTTGGGTTCTAACCTGTTGCCT (site CCGAATCCTAG)”: the “recombinant barcode read abundance (log10)” value stood at 0.153.

For “CCGATTCCTTGGGTTCTAACCTGTTGCCT (site CCGACTCCTAG)”, the “recombinant barcode read abundance (log10)” value came to 0.171.

Consider “CCGATTCCTTGGGTTCTAACCTGTTGCCT (site CCGAGTCCTAG)”, for which the “recombinant barcode read abundance (log10)” value came to 0.0319.

In the case of “CCGATTCCTTGGGTTCTAACCTGTTGCCT (site CCGATTCCTAG)”, the “recombinant barcode read abundance (log10)” value amounted to 0.217. With “CCGCAGCCTTGGGTTCTAACCTGTTGCCT (site CCGAAGCCTAG)” the figure was 0.0264; with “CCGCAGCCTTGGGTTCTAACCTGTTGCCT (site CCGCAGCCTAG)”, 1.59; with “CCGCAGCCTTGGGTTCTAACCTGTTGCCT (site CCGGAGCCTAG)”, 0.177. As to “CCGCAGCCTTGGGTTCTAACCTGTTGCCT (site CCGTAGCCTAG)”, the “recombinant barcode read abundance (log10)” value was 0.0447.

Take “CCGCCAGCTTGGGTTCTAACCTGTTGCCT (site CCGCCAGCTAG)”: the “recombinant barcode read abundance (log10)” value came out at 0.171.

For the sequence “CCGCCAGCTTGGGTTCTAACCTGTTGCCT (site CCGCCCGCTAG)”, the “recombinant barcode read abundance (log10)” value was found to be 0.0231. With “CCGCCAGCTTGGGTTCTAACCTGTTGCCT (site CCGCCGGCTAG)”, the “recombinant barcode read abundance (log10)” value came out at 0.0999. “CCGCCAGCTTGGGTTCTAACCTGTTGCCT (site CCGCCTGCTAG)”: the “recombinant barcode read abundance (log10)” value was 0.186. With “CCGCCCGCTTGGGTTCTAACCTGTTGCCT (site CCGCCAGCTAG)” the figure was 0.00972.

“CCGCCCGCTTGGGTTCTAACCTGTTGCCT (site CCGCCCGCTAG)”: the “recombinant barcode read abundance (log10)” value is 0.473. For the sequence “CCGCCCGCTTGGGTTCTAACCTGTTGCCT (site CCGCCGGCTAG)”, the “recombinant barcode read abundance (log10)” value is 0.083. With “CCGCCCGCTTGGGTTCTAACCTGTTGCCT (site CCGCCTGCTAG)”, the “recombinant barcode read abundance (log10)” value worked out at 0.0828. As to “CCGCCCTCTTGGGTTCTAACCTGTTGCCT (site CAGCCCTCTAG)”, the “recombinant barcode read abundance (log10)” value turned out to be 0.0642. With “CCGCCCTCTTGGGTTCTAACCTGTTGCCT (site CCGCCCTCTAG)” the figure was 1.04; with “CCGCCCTCTTGGGTTCTAACCTGTTGCCT (site CGGCCCTCTAG)”, 0.105. Take “CCGCCCTCTTGGGTTCTAACCTGTTGCCT (site CTGCCCTCTAG)”: the “recombinant barcode read abundance (log10)” value turned out to be 0.0291. With “CCGCCTCCTTGGGTTCTAACCTGTTGCGA (site CCGCCTCCTTC)” the figure was 0.616; with “CCGCCTCCTTGGGTTCTAACCTGTTGCGA (site CCGCGTCCTTA)”, 0.0484; with “CCGCGCCCTTGGGTTCTAACCTGTTGCAT (site ACGCGCCCTGT)”, 0.0166. With “CCGCGCCCTTGGGTTCTAACCTGTTGCAT (site CCGCGCCCTAT)” the figure was 0.504; with “CCGCGCTCTTGGGTTCTAACCTGTTGCCT (site CCGCGCACTAG)”, 0.106. With “CCGCGCTCTTGGGTTCTAACCTGTTGCCT (site CCGCGCTCTAG)” the figure was 0.641; with “CCGCGCTCTTGGGTTCTAACCTGTTGCTG (site ACGAGCTCTCA)”, 0; with “CCGCGCTCTTGGGTTCTAACCTGTTGCTG (site CCGCGCTCTCA)”, 0.379.

As to “CCGCGGCCTTGGGTTCTAACCTGTTGCCT (site ACGCGGCCTAG)”, the “recombinant barcode read abundance (log10)” value was found to be 0.0555. With “CCGCGGCCTTGGGTTCTAACCTGTTGCCT (site CCGCGGCCTAG)” the figure was 0.459; with “CCGCGGCCTTGGGTTCTAACCTGTTGCCT (site GCGCGGCCTAG)”, 0.0271. With “CCGCGGCCTTGGGTTCTAACCTGTTGCCT (site TCGCGGCCTAG)” the figure was 0.0221.

As for “CCGCTACCTTGGGTTCTAACCTGTTGCCT (site CAGCTACCTAG)”, the “recombinant barcode read abundance (log10)” value is 0.109. With “CCGCTACCTTGGGTTCTAACCTGTTGCCT (site CCGCTACCTAG)” the figure was 0.956.

“CCGCTACCTTGGGTTCTAACCTGTTGCCT (site CGGCTACCTAG)”: the “recombinant barcode read abundance (log10)” value came to 0.103. With “CCGCTACCTTGGGTTCTAACCTGTTGCCT (site CTGCTACCTAG)” the figure was 0.19. Turning to “CCGCTGTCTTGGGTTCTAACCTGTTGCCT (site CCGCTGTCTAG)”, the “recombinant barcode read abundance (log10)” value is 0.394. With “CCGCTGTCTTGGGTTCTAACCTGTTGCCT (site CCTCTGGCTAG)” the figure was 0.167; with “CCGGACCCTTGGGTTCTAACCTGTTGCTG (site CCGGACCCTCA)”, 2.49.
